Laboratory results reported in patent US20260176265A1 (Cancer Research Technology Limited, priority 2022, published 2026).

Columns and labels:
[1] = biological target: CtermHisTag-mEGFR Wild type (Homo sapiens, UniProt P00533); assay: TR-FRET probe displacement assay, EGFR wild type; assay type: binding; settings: EGFR wild type 1.25 nM, probe 100 nM, 30 mins room temperature
Description: (§1) Compounds (dissolved to 100 mM in DMSO) were dispensed into black low volume 384 well assay plates (Corning) over a final concentration range of 100000, 30000, 10000, 3000, 1000, 300, 100, 30, 10, and 3 nM using an Echo 550 (Labcyte). Positive control compound and DMSO as a negative control were dispensed into the first and last well, respectively. […]. Plates were read using a PheraStar FS (BMG Labtech) at Ex337 nm Ex490/520 nm. The data were analysed using Graphpad Prism/Dotmatics Studies Software. Assays conducted in technical replicate and repeated as a biological duplicate.

[2] = biological target: T1, Phospho-EGFR (Tyr1068) in H1975 C797S cells (Homo sapiens, UniProt P00533, C797S/L858R/T790M); assay: HTRF pEGFR/total EGFR assay in H1975 C797S cells; assay type: cell-based; settings: H1975 C797S cells (CRISPR), compound 3 hours, ratio pEGFR/total EGFR
T1 construct: endogenous in cells; host or cells: H1975 C797S (CRISPR-edited in house from ATCC CRL-5908)
Description: H1975 C797S cells (ATCC CRL-5908) were genetically engineered by CRISPR editing of EGFR C797S in house and validated by NGS. Cells were plated at 20,000 cells per well in 96 well plates and placed at 37° C. 5% CO2. Once adhered (after 24h) cells were treated with compounds dissolved in DMSO at a final concentration of 0.1% DMSO in media. Compounds were diluted in media then added to cells for 3 hours in duplicate. Compound and media were removed from the cells, then 50 ul of HTRF lysis buffer was added (lysis buffer was diluted from 4× stock to 1× in DI water, with 1% blocking agent also added). Cells were lysed on a plate shaker (2000 rpm) for 30 minutes at room temperature. pEGFR expression was monitored using the Cisbio Phospho-EGFR (Tyr1068) cellular kit (64EG1PEH). Total EGFR expression was monitored using the Cisbio Total EGFR cellular kit (64NG1PEH) as per manufacturer's instructions. Fluorescence emission was read at two different wavelengths (665 nm and 620 nm) on a PheraStar. Results were calculated as ratio of pEGFR/total EGFR and then percentage of 0 uM control.

[3] = biological target: CtermHisTag-mEGFR Triple Mutant - C797S, L858R, T790M (Homo sapiens, UniProt P00533, C797S/L858R/T790M); assay: TR-FRET probe displacement assay, EGFR triple mutant; assay type: binding; settings: T790M 1.25 nM, probe 100 nM, 30 mins room temperature
Description: as §1

[4] = biological target: T2, Phospho-EGFR (Tyr1068) in A431 cells (Homo sapiens, UniProt P00533); assay: HTRF pEGFR/total EGFR assay in A431 cells (EGF stimulated); assay type: cell-based; settings: compound 2.5 hours then 100 ng/ml EGF 30 mins, ratio pEGFR/total EGFR
T2 construct: endogenous in cells; host or cells: A431
Description: Cells were plated at 20,000 cells per well in 96 well plates and placed at 37° C. 5% CO2. Once adhered (after 24h) cells were treated with compounds dissolved in DMSO at a final concentration of 0.1% DMSO in media. Compounds were diluted in media then added to cells for 2.5 hours in duplicate, 100 ng/ml EGF (ThermoFisher, PHG0311 was is added to all compound treated cells as well as a control for 30 mins. Compound and media were removed from the cells, then 50ul of HTRF lysis bufferwas added (lysis bufferwas diluted from 4× stock to 1× in DI water, with 1% blocking agent also added). Cells were lysed on a plate shaker (2000 rpm) for 30 minutes at room temperature. pEGFR expression was monitored using the Cisbio Phospho-EGFR (Tyr1068) cellular kit (64EG1PEH). Total EGFR expression was monitored using the Cisbio Total EGFR cellular kit (64NG1PEH) as per manufacturer's instructions. Fluorescence emission was read at two different wavelengths (665 nm and 620 nm) on a PheraStar. Results were calculated as ratio of pEGFR/total EGFR and then percentage of OuM control.

[5] = biological target: T3, Phospho-EGFR (Tyr1068) in H1975 cells (Homo sapiens, UniProt P00533, L858R/T790M); assay: HTRF pEGFR/total EGFR assay in H1975 cells; assay type: cell-based; settings: compound 3 hours, ratio pEGFR/total EGFR
T3 construct: host or cells: H1975
Description: H1975 cells (ATCC CRL-5908) were plated at 20,000 cells per well in 96 well plates and placed at 37° C. 5% CO2. Once adhered (after 24h) cells were treated with compounds dissolved in DMSO at a final concentration of 0.1% DMSO in media. Compounds were diluted in media then added to cells for 3 hours in duplicate. Compound and media were removed from the cells, then 50ul of HTRF lysis buffer is added (lysis buffer was diluted from 4× stock to 1× in DI water, with 1% blocking agent also added). Cells were lysed on a plate shaker (2000 rpm) for 30 minutes at room temperature. pEGFR expression was monitored using the Cisbio Phospho-EGFR (Tyri068) cellular kit (64EG1 PEH). Total EGFR expression was monitored using the Cisbio Total EGFR cellular kit (64NG1 PEH) as per manufacturer's instructions. Fluorescence emission was read at two different wavelengths (665 nm and 620 nm) on a PheraStar. Results were calculated as ratio of pEGFR/total EGFR and then percentage of 0 uM control.

T3 sequence (P00533 25-1210 T790M/L858R): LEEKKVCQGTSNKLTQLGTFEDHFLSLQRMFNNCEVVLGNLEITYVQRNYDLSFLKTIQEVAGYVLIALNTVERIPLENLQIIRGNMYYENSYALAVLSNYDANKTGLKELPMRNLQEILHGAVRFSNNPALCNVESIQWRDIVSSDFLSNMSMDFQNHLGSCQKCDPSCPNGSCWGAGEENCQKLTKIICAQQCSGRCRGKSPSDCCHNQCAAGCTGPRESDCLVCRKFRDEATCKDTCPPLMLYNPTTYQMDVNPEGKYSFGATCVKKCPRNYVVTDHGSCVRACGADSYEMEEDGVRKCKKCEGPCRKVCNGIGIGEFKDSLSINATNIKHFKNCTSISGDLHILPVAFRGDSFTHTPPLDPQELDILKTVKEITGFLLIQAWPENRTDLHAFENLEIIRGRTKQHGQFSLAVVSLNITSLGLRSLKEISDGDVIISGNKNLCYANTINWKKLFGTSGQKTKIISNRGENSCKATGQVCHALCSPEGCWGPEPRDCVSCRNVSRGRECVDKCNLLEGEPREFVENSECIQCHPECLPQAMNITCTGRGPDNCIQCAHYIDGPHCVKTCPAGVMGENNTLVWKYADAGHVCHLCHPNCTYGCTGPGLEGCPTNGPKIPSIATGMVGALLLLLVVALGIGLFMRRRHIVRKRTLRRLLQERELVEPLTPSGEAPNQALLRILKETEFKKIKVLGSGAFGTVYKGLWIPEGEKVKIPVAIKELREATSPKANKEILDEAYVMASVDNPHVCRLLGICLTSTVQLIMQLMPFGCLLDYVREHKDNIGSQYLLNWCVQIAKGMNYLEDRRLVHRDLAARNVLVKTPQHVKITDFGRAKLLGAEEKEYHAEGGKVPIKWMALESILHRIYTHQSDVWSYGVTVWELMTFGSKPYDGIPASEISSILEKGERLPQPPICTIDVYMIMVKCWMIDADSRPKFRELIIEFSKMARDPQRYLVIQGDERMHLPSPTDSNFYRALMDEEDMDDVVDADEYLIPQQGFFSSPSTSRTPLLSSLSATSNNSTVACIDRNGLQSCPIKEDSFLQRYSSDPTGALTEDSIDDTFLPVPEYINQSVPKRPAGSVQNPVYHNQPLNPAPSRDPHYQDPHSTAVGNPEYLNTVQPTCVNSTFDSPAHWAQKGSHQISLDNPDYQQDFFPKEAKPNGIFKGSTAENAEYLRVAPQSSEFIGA
CtermHisTag-mEGFR Triple Mutant - C797S, L858R, T790M, sequence (P00533 25-1210 T790M/C797S/L858R): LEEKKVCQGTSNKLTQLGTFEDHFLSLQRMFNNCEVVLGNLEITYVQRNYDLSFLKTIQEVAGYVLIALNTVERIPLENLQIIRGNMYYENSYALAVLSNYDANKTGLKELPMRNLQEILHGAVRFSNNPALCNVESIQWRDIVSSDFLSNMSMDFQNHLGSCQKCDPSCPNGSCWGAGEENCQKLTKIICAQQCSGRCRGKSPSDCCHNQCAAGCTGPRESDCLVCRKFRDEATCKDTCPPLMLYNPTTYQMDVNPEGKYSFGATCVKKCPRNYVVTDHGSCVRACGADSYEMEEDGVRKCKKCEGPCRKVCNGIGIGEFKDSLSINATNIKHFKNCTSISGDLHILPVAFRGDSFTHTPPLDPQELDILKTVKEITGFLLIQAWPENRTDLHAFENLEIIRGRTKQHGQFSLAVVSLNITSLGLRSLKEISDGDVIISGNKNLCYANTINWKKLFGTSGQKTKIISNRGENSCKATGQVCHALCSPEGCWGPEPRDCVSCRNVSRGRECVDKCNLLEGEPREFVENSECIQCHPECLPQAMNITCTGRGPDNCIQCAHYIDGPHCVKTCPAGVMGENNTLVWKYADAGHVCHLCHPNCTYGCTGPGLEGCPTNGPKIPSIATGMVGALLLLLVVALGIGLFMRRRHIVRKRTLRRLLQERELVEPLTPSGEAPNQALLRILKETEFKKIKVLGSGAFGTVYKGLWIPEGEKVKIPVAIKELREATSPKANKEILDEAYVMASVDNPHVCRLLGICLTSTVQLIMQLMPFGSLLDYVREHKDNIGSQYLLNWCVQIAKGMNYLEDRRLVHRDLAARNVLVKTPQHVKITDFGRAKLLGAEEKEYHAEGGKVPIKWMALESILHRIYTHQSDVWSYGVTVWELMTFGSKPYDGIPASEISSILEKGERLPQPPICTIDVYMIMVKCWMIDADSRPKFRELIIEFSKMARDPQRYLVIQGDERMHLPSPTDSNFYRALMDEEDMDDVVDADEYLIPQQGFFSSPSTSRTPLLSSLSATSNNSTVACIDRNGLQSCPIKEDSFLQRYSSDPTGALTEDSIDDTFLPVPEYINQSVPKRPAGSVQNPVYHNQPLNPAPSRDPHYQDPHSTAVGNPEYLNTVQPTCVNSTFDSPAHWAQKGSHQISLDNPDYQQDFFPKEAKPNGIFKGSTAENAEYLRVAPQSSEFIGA
T1 sequence (P00533 25-1210 T790M/C797S/L858R): as above
CtermHisTag-mEGFR Wild type, sequence (P00533 25-1210): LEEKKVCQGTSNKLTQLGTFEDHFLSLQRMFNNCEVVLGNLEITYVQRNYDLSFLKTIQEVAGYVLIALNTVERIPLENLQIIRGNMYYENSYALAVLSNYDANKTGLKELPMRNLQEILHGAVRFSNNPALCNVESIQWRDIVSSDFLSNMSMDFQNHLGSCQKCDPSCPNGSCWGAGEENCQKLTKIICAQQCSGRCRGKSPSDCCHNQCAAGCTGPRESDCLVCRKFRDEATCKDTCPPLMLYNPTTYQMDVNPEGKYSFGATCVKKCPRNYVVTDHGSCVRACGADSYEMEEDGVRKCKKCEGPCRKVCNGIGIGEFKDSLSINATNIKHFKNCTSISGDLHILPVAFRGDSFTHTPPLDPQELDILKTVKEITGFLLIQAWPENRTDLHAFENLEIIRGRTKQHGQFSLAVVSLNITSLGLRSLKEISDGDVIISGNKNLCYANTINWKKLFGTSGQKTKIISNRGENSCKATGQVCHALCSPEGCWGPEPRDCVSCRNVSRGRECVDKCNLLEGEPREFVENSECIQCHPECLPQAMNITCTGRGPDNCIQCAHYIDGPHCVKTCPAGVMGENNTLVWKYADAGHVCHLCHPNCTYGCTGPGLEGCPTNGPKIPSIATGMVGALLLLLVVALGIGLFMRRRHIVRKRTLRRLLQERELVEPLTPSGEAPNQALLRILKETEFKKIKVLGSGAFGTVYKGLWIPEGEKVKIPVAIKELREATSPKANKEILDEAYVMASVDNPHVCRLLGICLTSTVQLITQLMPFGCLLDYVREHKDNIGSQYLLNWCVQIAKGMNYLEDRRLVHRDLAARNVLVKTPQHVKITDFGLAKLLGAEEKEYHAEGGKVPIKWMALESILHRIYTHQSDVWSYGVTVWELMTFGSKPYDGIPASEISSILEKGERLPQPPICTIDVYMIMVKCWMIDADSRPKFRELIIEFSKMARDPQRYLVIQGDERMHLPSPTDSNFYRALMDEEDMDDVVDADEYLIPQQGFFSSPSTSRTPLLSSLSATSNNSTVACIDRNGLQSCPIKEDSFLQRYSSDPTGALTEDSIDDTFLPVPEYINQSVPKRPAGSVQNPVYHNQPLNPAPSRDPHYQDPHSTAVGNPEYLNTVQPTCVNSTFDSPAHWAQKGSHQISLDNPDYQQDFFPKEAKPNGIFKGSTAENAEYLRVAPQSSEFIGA

Structure (SMILES) | IC50 [1] | IC50 [2] | IC50 [3] | IC50 [4] | IC50 [5]
C#Cc1cc(N2CCCC2=O)nc2nc(Nc3ccc(N4CCN(C)CC4)cc3)ncc12 [Example 31, 1-(5-ethynyl-2-{[4-(4-methylpiperazin-1-yl)phenyl]amino}pyrido[2,3-d]pyrimidin-7-yl)pyrrolidin-2-one] | 1 to 10 µM | 1 to 3 µM | < 0.02 µM | > 3 µM | 1 to 3 µM
C#Cc1cc(NC(C)=O)nc2nc(Nc3ccc(N(C)CCN(C)C)cc3)ncc12 [Example 28] | > 10 µM | > 3 µM | < 0.02 µM | > 3 µM | > 3 µM
C#Cc1cc(Nc2nccn2C2CCCC2)nc2nc(Nc3ccc(N4CCN(C)CC4)cc3)ncc12 [Example 27, N^7-(1-cyclopentylmidazol-2-yl)-5-ethynyl-N^2-[4-(4-methylpiperazin-1-yl)phenyl]pyrido[2,3-d]pyrimidine-2,7-diamine] | < 1 µM | > 3 µM | 0.02 to 0.1 µM | > 3 µM | 1 to 3 µM
C#Cc1cc(NC(=O)NCc2ccno2)nc2nc(Nc3ccc(N4CCN(C)CC4)cc3)ncc12 [Example 47, 1-(5-ethynyl-2-{[4-(4-methylpiperazin-1-yl)phenyl]amino}pyrido[2,3-d]pyrimidin-7-yl)-3-(1,2-oxazol-5-ylmethyl)urea] | < 1 µM | 1 to 3 µM | 0.02 to 0.1 µM | > 3 µM | 0.5 to 1 µM
C#Cc1cc(NC(=O)NC2COC2)nc2nc(Nc3ccc(N4CCN(C)CC4)cc3)ncc12 [Example 43, 1-(5-ethynyl-2-{[4-(4-methylpiperazin-1-yl)phenyl]amino}pyrido[2,3-d]pyrimidin-7-yl)-3-(oxetan-3-ylI)urea] | < 1 µM | < 0.5 µM | < 0.02 µM | > 3 µM | < 0.5 µM
C#Cc1cc(OC)nc2nc(Nc3ccc(N4CCN(C)CC4)c(N(C)C)c3)ncc12 [Example 5, N^3-{5-ethynyl-7-methoxypyrido[2,3-d]pyrimidin-2-yl}-N^1,N^1-dimethyl-6-(4-methylpiperazin-1-yl)benzene-1,3-diamine] | > 10 µM | > 3 µM | 0.1 to 1 µM | > 3 µM | > 3 µM
C#Cc1cc(N2C(=O)OCC2C2CCCC2)nc2nc(Nc3ccc(N4CCNCC4)cc3)ncc12 (stereo not shown) [Example 115, 4-Cyclopentyl-3-(5-ethynyl-2-{[4-(piperazin-1-yl)phenyl]amino}pyrido[2,3-d]pyrimidin-7-y0)-1,3-oxazolidin-2-one] | 1 to 10 µM | > 3 µM | < 0.02 µM | > 3 µM | 0.5 to 1 µM
C#Cc1cc(NC(=O)NC2(C(F)(F)F)CCCC2)nc2nc(Nc3ccc(N4CCN(C)CC4)cc3)ncc12 [Example 60, 1-(5-ethynyl-2-((4-(4-methylpiperazin-1-yl)phenyl)amino)pyrido[2,3-d]pyrimidin-7-yl)-3-(1-(trifluoromethyl)cyclopentyl)urea] | < 1 µM | < 0.5 µM | < 0.02 µM | < 0.5 µM | < 0.5 µM
C#Cc1cc(N2C(=O)NCC2C(C)C)nc2nc(Nc3ccc(N4CCN(C)CC4)cc3)ncc12 (stereo not shown) [Example 64, 1-(5-ethynyl-2-{[4-(4-methylpiperazin-1-yl)phenyl]amino}pyrido[2,3-d]pyrimidin-7-yl)-5-isopropylmidazolidin-2-one] | 1 to 10 µM | 1 to 3 µM | < 0.02 µM | < 0.5 µM | < 0.5 µM
C#Cc1cc(N2C(=O)NCC23CCCC3)nc2nc(Nc3ccc(N(C)C(=O)CN(C)C)cc3)ncc12 [Example 94, 2-(Dimethylamino)-N-{4-[(5-ethynyl-7-{2-oxo-1,3-diazaspiro[4.4]nonan-1-yl}pyrido[2,3-d]pyrimidin-2-yl)amino]phenyl}-N-methylacetamide] | < 1 µM | 1 to 3 µM | 0.02 to 0.1 µM | 1 to 3 µM | 1 to 3 µM
C#Cc1cc(NC(=O)c2ccccc2)nc2nc(Nc3ccc(N4CCN(C)CC4)cc3)ncc12 [Example 29, N-(5-ethynyl-2-{[4-(4-methylpiperazin-1-yl)phenyl]amino}pyrido[2,3-d]pyrimidin-7-yl)benzamide] | 1 to 10 µM | > 3 µM | 0.02 to 0.1 µM | > 3 µM | > 3 µM
C#Cc1cc(NC(=O)NC2CCCC2)nc2nc(Nc3ccccc3N3CCC(CS(C)(=O)=O)C3)ncc12 (stereo not shown) [Example 89] | > 10 µM | > 3 µM | 1 to 50 µM | > 3 µM | > 3 µM
C#Cc1cc(N2C(=O)NC[C@H]2COC)nc2nc(Nc3ccc(N4CCN(C)CC4)cc3)ncc12 [Example 101, (5S)-1-(5-Ethynyl-2-{[4-(4-methylpiperazin-1-yl)phenyl]amino}pyrido[2,3-d]pyrimidin-7-yl)-5-(methoxymethyl)imidazolidin-2-one] | 1 to 10 µM | > 3 µM | 0.02 to 0.1 µM | > 3 µM | 0.5 to 1 µM
C#Cc1cc(OCc2cscn2)nc2nc(Nc3ccc(N4CCN(C)CC4)cc3)ncc12 [Example 13, 5-ethynyl-N-[4-(4-methylpiperazin-1-yl)phenyl]-7-(1,3-thiazol-4-ylmethoxy)pyrido[2,3-d]pyrimidin-2-amine] | > 10 µM | > 3 µM | 0.02 to 0.1 µM | > 3 µM | 1 to 3 µM
C#Cc1cc(NC(=O)NC2CC2)nc2nc(Nc3ccc(N4CCN(C)CC4)cc3)ncc12 [Example 44, 3-cyclopropyl-1-(5-ethynyl-2-{[4-(4-methylpiperazin-1-yl)phenyl]amino}pyrido[2,3-d]pyrimidin-7-yl)urea] | < 1 µM | < 0.5 µM | < 0.02 µM | 1 to 3 µM | < 0.5 µM
C#Cc1cc(N2C(=O)OCC2C2CCCC2)nc2nc(Nc3ccc(N4CCN(C)CC4)cc3)ncc12 (stereo not shown) [Example 111, 4-Cyclopentyl-3-(5-ethynyl-2-{[4-(4-methylpiperazin-1-yl)phenyl]amino}pyrido[2,3-d]pyrimidin-7-yl)-1,3-oxazolidin-2-one] | 1 to 10 µM | 0.5 to 1 µM | < 0.02 µM | > 3 µM | 0.5 to 1 µM
C#Cc1cc(N2CCOC2=O)nc2nc(Nc3ccc(N4CCN(C)CC4)cc3)ncc12 [Example 71, 3-(5-ethynyl-2-{[4-(4-methylpiperazin-1-yl)phenyl]amino}pyrido[2,3-d]pyrimidin-7-yl)-1,3-oxazolidin-2-one] | < 1 µM | > 3 µM | < 0.02 µM | 1 to 3 µM | 1 to 3 µM
